Test results as given in patent US11918352B2, “Non-invasive determination of a physiological state of interest in a subject” (ISBRG CORP., priority 2018, dated 2024).

Columns and labels:
[1] = Analyte composition of a subject after consumption (Table 2, simplified illustrative data set); type: in vivo, human; conditions: for Analyte level, intoxicated state: 1 hr after consumption, THC induced intoxicated state; for Analyte level, post-intoxicated state: 36 hr after consumption
Excerpt: For example, which is not to be considered limiting, in a THC induced intoxicated state, a subject may comprise the analyte composition presented in Table 1. It is to be understood that this table presents a simplified data set to exemplify the method described herein. Other analytes, which may include known analytes or ghost analytes, are indicated as analytes A, B . . . C; A′, B′, . . . C′; A″, B″ . . . C″. These other analytes may increase or decrease in response to, or that are correlated with, the physiological condition and they may be included in this analysis.
In this example, the result may be considered positive for a THC-induced intoxicated state if the Index is greater than a preset value which is determined based on an analysis of the analytes determined in subjects who were exposed to a control treatment, or a range of THC under controlled conditions, for example an Index value of (2+A)/(C+ . . . +C) may be an indication of a positive result for the state of THC-induced intoxication.

[2] = cited from earlier work

Compound | Analyte level, intoxicated state [1] [ng/mL] | Analyte level, post-intoxicated state [1] [ng/mL] | Residual THC in serum ([2]; chronic users of marijuana, detected for 24 to 48 hours or longer, serum) [ng/mL] | Residual THC in whole blood ([2]; chronic users of marijuana, detected for 24 to 48 hours or longer, whole blood) [ng/mL] | Time of THC peak ([2]; smoked marijuana, after inhaling) | THC level remaining ([2]; smoked marijuana, for 8 hours or more) [ng/mL]
CCCCCc1cc(O)c2c(c1)OC(C)(C)C1CCC(CO)=CC21 (stereo not shown) [11-OH-THC, 11-hydroxy THC] | 5 | 2 | – | – | – | –
CCCCCc1cc(O)c2c(c1)OC(C)(C)[C@@H]1CCC(C(=O)O)=C[C@@H]21 [THC-COOH, 11-nor-9-carboxy-THC] | 5 | 11 | – | – | – | –
CCCCCc1cc(O)c2c(c1)OC(C)(C)[C@@H]1CCC(C)=C[C@@H]21 [THC, delta-9-tetrahydrocannabinol] | 78 | 8 | 1.0 to 6.4 | 0.5 to 3.2 | first few minutes | 1 to 2
